In ChEMBL document CHEMBL1201862, “PubChem BioAssay data set” (2004):
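All cell lines were grown in 96-well plates and treated with compound for 48 hours. At the GI50, growth is halved.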 Activity calls are given as the source filed them. Cut-off read from the data, not from the text of the source: active = GI50 up to about 1.1 µM and inactive = higher.

Legend:
Assay in all cases: NCI-60 cell line screen, 48 h
HOP-92 = tested on: HOP-92
CCRF-CEM = tested on: CCRF-CEM
A549 = tested on: A549
HCT-15 = tested on: HCT-15
A498 = tested on: A498
SF-539 = tested on: SF-539
NCI-H460 = tested on: NCI-H460
SK-OV-3 = tested on: SK-OV-3
HT-29 = tested on: HT-29
Hs-578T = tested on: Hs-578T
T47D = tested on: T47D
UO-31 = tested on: UO-31
SK-MEL-5 = tested on: SK-MEL-5
KM12 = tested on: KM12
786-0 = tested on: 786-0
IGROV-1 = tested on: IGROV-1
NCI-H23 = tested on: NCI-H23
OVCAR-5 = tested on: OVCAR-5
UACC-257 = tested on: UACC-257
MDA-MB-435 = tested on: MDA-MB-435

Structure (SMILES) | GI50 (HOP-92) | GI50 (CCRF-CEM) | GI50 (A549) | GI50 (HCT-15) [µM] | GI50 (A498) | GI50 (SF-539) | GI50 (NCI-H460) | GI50 (SK-OV-3) | GI50 (HT-29) | GI50 (Hs-578T) | GI50 (T47D) | GI50 (UO-31) | GI50 (SK-MEL-5) | GI50 (KM12) | GI50 (786-0) | GI50 (IGROV-1) | GI50 (NCI-H23) | GI50 (OVCAR-5) | GI50 (UACC-257) | GI50 (MDA-MB-435)
CC(C)N(CC(=O)O)CC(=O)O | > 100 µM (inactive) | > 100 µM (inactive) | > 100 µM (inactive) | > 100 | > 100 µM (inactive) | > 100 µM (inactive) | > 100 µM (inactive) | > 100 µM (inactive) | > 100 µM (inactive) | > 100 µM (inactive) | > 100 µM (inactive) | > 100 µM (inactive) | > 100 µM (inactive) | > 100 µM (inactive) | > 100 µM (inactive) | > 100 µM (inactive) | > 100 µM (inactive) | > 100 µM (inactive) | > 100 µM (inactive) | > 100 µM (inactive)
O=c1oc2ccccc2c2nc3ccccc3cc12 | 31.3 µM (inactive) | > 100 µM (inactive) | 99.8 µM (inactive) | > 100 | 33 µM (inactive) | 11.6 µM (inactive) | 37.8 µM (inactive) | 51.9 µM (inactive) | 99.5 µM (inactive) | 25.9 µM (inactive) | > 100 µM (inactive) | 34.8 µM (inactive) | > 100 µM (inactive) | > 100 µM (inactive) | 28.2 µM (inactive) | 35 µM (inactive) | > 100 µM (inactive) | > 100 µM (inactive) | 96.6 µM (inactive) | > 100 µM (inactive)
CC(=O)OCC1OC(n2c(N)c(C#N)c(-c3cccc(Cl)c3)c(C#N)c2=S)C(OC(C)=O)C(OC(C)=O)C1OC(C)=O (stereo not given) | 23 µM (inactive) | 3.31 µM (inactive) | 24.3 µM (inactive) | 22.5 | 20.6 µM (inactive) | 12.6 µM (inactive) | 24.8 µM (inactive) | 20.7 µM (inactive) | 24.5 µM (inactive) | 20 µM (inactive) | 18.9 µM (inactive) | 40.2 µM (inactive) | 14.3 µM (inactive) | 15.5 µM (inactive) | 22.2 µM (inactive) | 30.5 µM (inactive) | 24.2 µM (inactive) | 44.8 µM (inactive) | 22 µM (inactive) | 15.4 µM (inactive)
C(=N\N=C1NCCCN1)/c1ccc2ccccc2c1 | 10.3 µM (inactive) | 11.2 µM (inactive) | 9.23 µM (inactive) | 13.7 | 3.01 µM (inactive) | 16.8 µM (inactive) | 4.98 µM (inactive) | 11.2 µM (inactive) | 8.39 µM (inactive) | 16.9 µM (inactive) | 10.4 µM (inactive) | 11.6 µM (inactive) | 3.47 µM (inactive) | 13.6 µM (inactive) | 11.7 µM (inactive) | 11.7 µM (inactive) | 17.6 µM (inactive) | 8.69 µM (inactive) | 17.3 µM (inactive) | 5.89 µM (inactive)
C1=N\CCNCC/N=C\c2ccc(cc2)OCc2cccc(n2)COc2ccc/1cc2 | > 100 µM (inactive) | > 100 µM (inactive) | > 100 µM (inactive) | 97.1 | > 100 µM (inactive) | 47.1 µM (inactive) | > 100 µM (inactive) | 36.3 µM (inactive) | > 100 µM (inactive) | 23.5 µM (inactive) | > 100 µM (inactive) | > 100 µM (inactive) | 65.8 µM (inactive) | > 100 µM (inactive) | 40.2 µM (inactive) | 66.7 µM (inactive) | 66.7 µM (inactive) | > 100 µM (inactive) | > 100 µM (inactive) | > 100 µM (inactive)
COc1ccc(/C=C2/S/C(=N\c3ccccc3)N(NC(=O)Cc3ccccc3)C2=O)c(OC)c1 | 3.37 µM (inactive) | 82.6 µM (inactive) | > 100 µM (inactive) | > 100 | > 100 µM (inactive) | > 100 µM (inactive) | > 100 µM (inactive) | > 100 µM (inactive) | > 100 µM (inactive) | > 100 µM (inactive) | 43.9 µM (inactive) | 98.9 µM (inactive) | 69.5 µM (inactive) | > 100 µM (inactive) | > 100 µM (inactive) | > 100 µM (inactive) | > 100 µM (inactive) | > 100 µM (inactive) | > 100 µM (inactive) | > 100 µM (inactive)
N#CSc1[nH]cnc1C(N)=O | > 100 µM (inactive) | 5.21 µM (inactive) | > 100 µM (inactive) | > 100 | > 100 µM (inactive) | 77.3 µM (inactive) | > 100 µM (inactive) | > 100 µM (inactive) | > 100 µM (inactive) | > 100 µM (inactive) | > 75.5 µM (inactive) | > 93.5 µM (inactive) | > 100 µM (inactive) | > 100 µM (inactive) | 40.9 µM (inactive) | > 100 µM (inactive) | > 100 µM (inactive) | > 100 µM (inactive) | > 100 µM (inactive) | > 100 µM (inactive)
COc1ccc(C(=O)/C=C/c2cc(O)c(O)cc2F)c(OC)c1 | 50.1 µM (inactive) | 0.783 µM (active) | 10.5 µM (inactive) | 0.448 | 12.1 µM (inactive) | 6.04 µM (inactive) | 3.99 µM (inactive) | 10.6 µM (inactive) | 7.48 µM (inactive) | 4.8 µM (inactive) | 4.05 µM (inactive) | 7.67 µM (inactive) | 8.05 µM (inactive) | 5.16 µM (inactive) | 5.45 µM (inactive) | 7.96 µM (inactive) | 5.3 µM (inactive) | 15.3 µM (inactive) | 10.5 µM (inactive) | 2.9 µM (inactive)
Nc1ccccc1/N=C/c1cc2cc([N+](=O)[O-])ccc2s1 | 18.9 µM (inactive) | 5.01 µM (inactive) | 8.47 µM (inactive) | 43.3 | 10.4 µM (inactive) | 12.1 µM (inactive) | 5.58 µM (inactive) | 13.9 µM (inactive) | 25.8 µM (inactive) | 15.1 µM (inactive) | 4.13 µM (inactive) | 15.7 µM (inactive) | 21.4 µM (inactive) | 10 µM (inactive) | 14.5 µM (inactive) | 7.59 µM (inactive) | 33 µM (inactive) | 32.7 µM (inactive) | 19.5 µM (inactive) | 31.4 µM (inactive)
Cc1cc([C@H](C#N)c2nc3ccccc3s2)nc(Cl)n1 | 2.32 µM (inactive) | 3.82 µM (inactive) | 14.8 µM (inactive) | 3.66 | 15.2 µM (inactive) | 4.92 µM (inactive) | 3.45 µM (inactive) | 5.66 µM (inactive) | 3.88 µM (inactive) | 4.71 µM (inactive) | 2.92 µM (inactive) | 4.39 µM (inactive) | 1.79 µM (inactive) | 2.78 µM (inactive) | 4.76 µM (inactive) | 3.52 µM (inactive) | 2.78 µM (inactive) | 16.3 µM (inactive) | 5.41 µM (inactive) | 2.99 µM (inactive)
O=S(=O)(c1ccccc1)[C@H]1[C@@H]2O[C@@H]2C[C@@H]1O | > 100 µM (inactive) | > 100 µM (inactive) | > 100 µM (inactive) | > 100 | > 100 µM (inactive) | > 100 µM (inactive) | > 100 µM (inactive) | > 100 µM (inactive) | > 100 µM (inactive) | > 100 µM (inactive) | > 100 µM (inactive) | > 100 µM (inactive) | > 100 µM (inactive) | > 100 µM (inactive) | > 100 µM (inactive) | > 100 µM (inactive) | > 100 µM (inactive) | > 100 µM (inactive) | > 100 µM (inactive) | > 100 µM (inactive)
CC(C)=CCN1CC(C)C(=O)Nc2ccccc21 (stereo not given) | 49 µM (inactive) | > 100 µM (inactive) | > 100 µM (inactive) | > 100 | > 100 µM (inactive) | > 100 µM (inactive) | 93.3 µM (inactive) | > 100 µM (inactive) | > 100 µM (inactive) | > 100 µM (inactive) | > 100 µM (inactive) | > 100 µM (inactive) | 42.6 µM (inactive) | > 100 µM (inactive) | > 100 µM (inactive) | > 100 µM (inactive) | > 100 µM (inactive) | > 100 µM (inactive) | 44.7 µM (inactive) | > 100 µM (inactive)
CN(C)CC1CCCC(CN2CCCCC2)C1=O (stereo not given) | 1.96 µM (inactive) | 0.762 µM (active) | > 62.1 µM (inactive) | 8.83 | 38.5 µM (inactive) | 17.5 µM (inactive) | > 55.8 µM (inactive) | > 62.7 µM (inactive) | 5.4 µM (inactive) | 19.7 µM (inactive) | 2.19 µM (inactive) | 17.2 µM (inactive) | 18.7 µM (inactive) | 19.4 µM (inactive) | 2.74 µM (inactive) | 17 µM (inactive) | 17.9 µM (inactive) | 31.4 µM (inactive) | 14.6 µM (inactive) | 17.1 µM (inactive)
Cc1ccc(-c2nc3n(c2/C=N\N=C(N)N)CCS3)cc1 | 19.4 µM (inactive) | 22.1 µM (inactive) | 15.9 µM (inactive) | 17.5 | 16.8 µM (inactive) | 15.2 µM (inactive) | 18 µM (inactive) | 15.3 µM (inactive) | 14 µM (inactive) | 18.1 µM (inactive) | 13.2 µM (inactive) | 16.7 µM (inactive) | 14.2 µM (inactive) | 15 µM (inactive) | 15.8 µM (inactive) | 15 µM (inactive) | 15.8 µM (inactive) | 16.3 µM (inactive) | 16.6 µM (inactive) | 15.5 µM (inactive)
